For one assay, the system named is MOLM-13. The assay is described as follows: Cell growth inhibition, CellTiter-Glo Luminescent Cell Viability Assay, MOLM-13. The class given is cell-based. As to conditions: MOLM-13 cells, 4 days incubation. The protocol: (§1) Cell growth inhibitory activity of representative Compounds of the Disclosure was determined in various cell lines using CellTiter-Glo® Luminescent Cell Viability Assay. Cells were seeded in 384-well white opaque cell culture plates at a density of 2,000 cells/well with serially diluted compounds and incubated at 37° C. in an atmosphere of 95% air and 5% CO2 for 4 days. Cell viability was determined using the CellTiter-Glo® Luminescent Cell Viability Assay Kit (Promega, Madison, Wis.) according to the manufacture's instruction. Briefly, a volume of CellTiter-Glo® Reagent equal to the volume of cell culture medium was added to each well, and then the plates were incubated at room temperature for 10-20 minutes. The luminescent signal was measured using a Tecan Infinite M1000 multimode microplate reader (Tecan, Morrisville, N.C.). The half maximal inhibitory concentration (IC50) was calculated using the GraphPad Prism 5 software (GraphPad Software, La Jolla, Calif.).
For orientation: In ATP-based viability assays light output follows the ATP content of the culture.

A further assay deals with MDA-MB-231. The assay can be described thus: Cell growth inhibition, CellTiter-Glo Luminescent Cell Viability Assay, MDA-MB-231. As to conditions: MDA-MB-231 cells, 4 days incubation. The class given is cell-based. The protocol:
as §1

Structures are written as SMILES.

For `CCNC(=O)C[C@@H]1N=C(c2ccc(Cl)cc2)c2c(sc(C#Cc3cnn(CCCN4CCC(Nc5cccc6c5CN(C5CCC(=O)NC5=O)C6=O)CC4)c3)c2C)-n2c(C)nnc21` (stereo partly drawn) [compound 191, 2-((6S)-4-(4-chlorophenyl)-2-((1-(3-(4-((2-(2,6-dioxopiperidin-3-yl)-1-oxoisoindolin-4-yl)amino)piperidin-1-yl)propyl)-1H-pyrazol-4-yl)ethynyl)-3,9-dimthyl-6H-thieno[3,2-f][1,2,4]triazolo[4,3-a][1,4]diazepin-6-yl)-N-ethylacetamide], the concentration for half-maximal inhibition (IC50) in the assay with MOLM-13 (Homo sapiens, MOLM-13, 96 h) amounted to 0.04 nM; in the assay with MDA-MB-231 (Homo sapiens, MDA-MB-231, 96 h) it was 0.2 nM.
As to `Cc1c(C#Cc2ccc(OCCC#Cc3cccc4c3CN(C3CCC(=O)NC3=O)C4=O)cn2)sc2c1C(c1ccc(Cl)cc1)=N[C@@H](C)c1nnc(C)n1-2` (stereo partly drawn) [Cpd. No. 16, 3-(4-(4-((6-(((S)-4-(4-chlorophenyl)-3,6,9-trimethyl-6H-thieno[3,2-f][1,2,4]triazolo[4,3-a][1,4]diazepin-2-yl)ethynyl)pyridin-3-yl)oxy)but-1-yn-1-yl)-1-oxoisoindolin-2-yl)piperidine-2,6-dione], the IC50 with MOLM-13 (Homo sapiens, MOLM-13, 96 h) is 1.1 nM; with MDA-MB-231 (Homo sapiens, MDA-MB-231, 96 h), 1.7 nM.
Consider `Cc1ncsc1-c1ccc([C@H](C)NC(=O)[C@@H]2C[C@@H](O)CN2C(=O)[C@@H](NC(=O)COCCOCCOCCn2cc(C#Cc3sc4c(c3C)C(c3ccc(Cl)cc3)=N[C@@H](C)c3nnc(C)n3-4)cn2)C(C)(C)C)cc1` [compound 200, (2S,4R)-1-((S)-2-(tert-butyl)-14-(4-(((S)-4-(4-chlorophenyl)-3,6,9-trimethyl-6H-thieno[3,2-f][1,2,4]triazolo[4,3-a][1,4]diazepin-2-yl)ethynyl)-1H-pyrazol-1-yl)-4-oxo-6,9,12-trioxa-3-azatetradecanoyl)-4-hydroxy-N-((S)-1-(4-(4-methylthiazol-5-yl)phenyl)ethyl)pyrrolidine-2-carboxamide], for which the IC50 is 0.34 ± 0.03 nM with MOLM-13 (Homo sapiens, MOLM-13, 96 h) and 3.1 nM in the assay with MDA-MB-231 (Homo sapiens, MDA-MB-231, 96 h).
With `Cc1c(C#Cc2cnn(CCCC#Cc3ccc4c(c3)C(=O)N(C3CCC(=O)NC3=O)C4=O)c2)sc2c1C(c1ccc(Cl)cc1)=NCc1nnc(C)n1-2` (stereo not shown) [compound 157, 5-(5-(4-((4-(4-chlorophenyl)-3,9-dimethyl-6H-thieno[3,2-f][1,2,4]triazolo[4,3-a][1,4]diazepin-2-yl)ethynyl)-1H-pyrazolo-1-yl)pent-1-yn-1-yl)-2-(2,6-dioxopiperidin-3-yl)isoindoline-1,3-dione], the 50% inhibitory concentration (IC50) in the assay with MOLM-13 (Homo sapiens, MOLM-13, 96 h) stood at 18.6 nM; with MDA-MB-231 (Homo sapiens, MDA-MB-231, 96 h), 52.7 nM.
Turning to `Cc1c(C#Cc2cnn(C[C@H]3CC[C@H](Nc4cccc5c4CN(C4CCC(=O)NC4=O)C5=O)CC3)c2)sc2c1C(c1ccc(Cl)cc1)=N[C@@H](C)c1nnc(C)n1-2` (stereo partly drawn) [compound 171, 3-(4-(((1S,4r)-4-((4-(((S)-4-(4-chlorophenyl)-3,6,9-trimethyl-6H-thieno[3,2-f][1,2,4]triazolo[4,3-a][1,4]diazepin-2-yl)ethynyl)-1H-pyrazol-1-yl)methyl)cyclohexyl)amino)-1-oxoisoindolin-2-yl)piperidine-2,6-dione], the IC50 in the assay with MOLM-13 (Homo sapiens, MOLM-13, 96 h) turned out to be 0.6 nM; in the assay with MOLM-13 it was 0.8 nM; with MDA-MB-231 (Homo sapiens, MDA-MB-231, 96 h), 0.9 nM; in the assay with MDA-MB-231, 1 nM.
On to `Cc1c(C#Cc2cnn(CCCC#Cc3cccc4c3C(=O)N(C3CCCNC3=O)C4=O)c2)sc2c1C(c1ccc(Cl)cc1)=N[C@@H](C)c1nnc(C)n1-2` (stereo partly drawn) [compound 160, 4-(5-(4-(((S)-4-(4-chlorophenyl)-3,6,9-trimethyl-6H-thieno[3,2-f][1,2,4]triazolo[4,3-a][1,4]diazepin-2-yl)ethynyl)-1H-pyrazol-1-yl)pent-1-yn-1-yl)-2-(2-oxopiperidin-3-yl)isoindoline-1,3-dione], for which the concentration for half-maximal inhibition (IC50) with MOLM-13 (Homo sapiens, MOLM-13, 96 h) was 42.6 nM; in the assay with MDA-MB-231 (Homo sapiens, MDA-MB-231, 96 h) it was 58.8 nM.
For the compound `Cc1ncsc1-c1ccc([C@H](C)NC(=O)[C@@H]2C[C@@H](O)CN2C(=O)[C@@H](NC(=O)COCCCn2cc(C#Cc3sc4c(c3C)C(c3ccc(Cl)cc3)=N[C@@H](C)c3nnc(C)n3-4)cn2)C(C)(C)C)cc1` [compound 199, (2S,4R)-1-((S)-2-(2-(3-(4-(((S)-4-(4-chlorophenyl)-3,6,9-trimethyl-6H-thieno[3,2-f][1,2,4]triazolo[4,3-a][1,4]diazepin-2-yl)ethynyl)-1H-pyrazol-1-yl)propoxy)acetamido)-3,3-dimethylbutanoyl)-4-hydroxy-N-((S)-1-(4-(4-methylthiazol-5-yl)phenyl)ethyl)pyrrolidine-2-carboxamide], the IC50 in the assay on MOLM-13 (Homo sapiens, MOLM-13, 96 h) was 0.5 ± 0.06 nM; in the assay on MDA-MB-231 (Homo sapiens, MDA-MB-231, 96 h) it was 6.7 nM.
As to `Cc1c(C#Cc2cnn(CCn3cnc(CNc4cccc5c4CN(C4CCC(=O)NC4=O)C5=O)c3)c2)sc2c1C(c1ccc(Cl)cc1)=NCc1nnc(C)n1-2` (stereo not shown) [compound 150, 3-(4-(((1-(2-(4-((4-(4-chlorophenyl)-3,9-dimethyl-6H-thieno[3,2-f][1,2,4]triazolo[4,3-a][1,4]diazepin-2-yl)ethynyl)-1H-pyrazol-1-yl)ethyl)-1H-imidazol-4-yl)methyl)amino)-1-oxoisoindolin-2-yl)piperidine-2,6-dione], the 50% inhibitory concentration (IC50) with MOLM-13 (Homo sapiens, MOLM-13, 96 h) is greater than 100 nM; in the assay on MDA-MB-231 (Homo sapiens, MDA-MB-231, 96 h), greater than 100 nM.
Consider `Cc1c(C#Cc2cnn(CCCCCc3ccc4c(c3)CN(C3CCC(=O)NC3=O)C4=O)c2)sc2c1C(c1ccc(Cl)cc1)=N[C@@H](C)c1nnc(C)n1-2` (stereo partly drawn) [compound 180, 3-(5-(5-(4-(((S)-4-(4-chlorophenyl)-3,6,9-trimethyl-6H-thieno[3,2-f][1,2,4]triazolo[4,3-a][1,4]diazepin-2-yl)ethynyl)-1H-pyrazol-1-yl)pentyl)-1-oxoisoindolin-2-yl)piperidine-2,6-dione], for which the concentration for half-maximal inhibition (IC50) was determined as 0.2 nM in the assay on MOLM-13 (Homo sapiens, MOLM-13, 96 h) and 0.04 nM in the assay on MDA-MB-231 (Homo sapiens, MDA-MB-231, 96 h).
For the compound `Cc1c(C#Cc2cnn(CCN3CC(CNc4cccc5c4CN(C4CCC(=O)NC4=O)C5=O)C3)c2)sc2c1C(c1ccc(Cl)cc1)=N[C@@H](C)c1nnc(C)n1-2` (stereo partly drawn) [compound 175, 3-(4-(((1-(2-(4-(((S)-4-(4-chlorophenyl)-3,6,9-trimethyl-6H-thieno[3,2-f][1,2,4]triazolo[4,3-a][1,4]diazepin-2-yl)ethynyl)-1H-pyrazol-1-yl)ethyl)azetidin-3-yl)methyl)amino)-1-oxoisoindolin-2-yl)piperidine-2,6-dione], the IC50 came to 0.35 nM in the assay with MOLM-13 (Homo sapiens, MOLM-13, 96 h) and 1.5 nM with MDA-MB-231 (Homo sapiens, MDA-MB-231, 96 h).
As to `Cc1c(C#Cc2cnn(CCCN3CCC(Nc4cccc5c4CN(C4CCC(=O)NC4=O)C5=O)CC3)c2)sc2c1C(c1ccc(Cl)cc1)=N[C@@H](CC(N)=O)c1nnc(C)n1-2` (stereo partly drawn) [compound 190, 2-((6S)-4-(4-chlorophenyl)-2-((1-(3-(4-((2-(2,6-dioxopiperidin-3-yl)-1-oxoisoindolin-4-yl)amino)piperidin-1-yl)propyl)-1H-pyrazol-4-yl)ethynyl)-3,9-dimethyl-6H-thieno[3,2-f][1,2,4]triazolo[4,3-a][1,4]diazepin-6-yl)acetamide], the IC50 was determined as 0.05 nM with MOLM-13 (Homo sapiens, MOLM-13, 96 h) and 0.1 nM in the assay with MDA-MB-231 (Homo sapiens, MDA-MB-231, 96 h).
With `Cc1c(C#Cc2cnn(CCCC#Cc3cccc4c3C(=O)N(C3CCCNC3=O)C4=O)c2)sc2c1C(c1ccc(Cl)cc1)=NCc1nnc(C)n1-2` (stereo not shown) [compound 159, 4-(5-(4-((4-(4-chlorophenyl)-3,9-dimethyl-6H-thieno[3,2-f][1,2,4]triazolo[4,3-a][1,4]diazepin-2-yl)ethynyl)-1H-pyrazol-1-yl)pent-1-yn-1-yl)-2-(2-oxopiperidin-3-yl)isoindoline-1,3-dione], the IC50 is greater than 100 nM with MOLM-13 (Homo sapiens, MOLM-13, 96 h) and greater than 100 nM in the assay on MDA-MB-231 (Homo sapiens, MDA-MB-231, 96 h).
Consider `Cc1c(C#Cc2ccc(CCCCNc3cccc4c3CN(C3CCC(=O)NC3=O)C4=O)nc2)sc2c1C(c1ccc(Cl)cc1)=NCc1nnc(C)n1-2` (stereo not shown) [Cpd. No. 17, 3-(4-((4-(5-((4-(4-chlorophenyl)-3,9-dimethyl-6H-thieno[3,2-f][1,2,4]triazolo[4,3-a][1,4]diazepin-2-yl)ethynyl)pyridin-2-yl)butyl)amino)-1-oxoisoindolin-2-yl)piperidine-2,6-dione], for which the half-maximal inhibitory concentration (IC50) in the assay with MOLM-13 (Homo sapiens, MOLM-13, 96 h) was found to be 10.3 nM; with MDA-MB-231 (Homo sapiens, MDA-MB-231, 96 h), 11.1 nM.
As for `Cc1c(C#Cc2cnn(CCCN3CCC(Nc4cccc5c4CN(C4CCC(=O)NC4=O)C5=O)CC3)c2)sc2c1C(c1ccc(Cl)cc1)=N[C@@H](CC(=O)Nc1ccc(O)cc1)c1nnc(C)n1-2` (stereo partly drawn) [compound 193, 2-((6S)-4-(4-chlorophenyl)-2-((1-(3-(4-((2-(2,6-dioxopiperidin-3-yl)-1-oxoisoindolin-4-yl)amino)piperidin-1-yl)propyl)-1H-pyrazol-4-yl)ethynyl)-3,9-dimethyl-6H-thieno[3,2-f][1,2,4]triazolo[4,3-a][1,4]diazepin-6-yl)-N-(4-hydroxyphenyl)acetamide], the concentration for half-maximal inhibition (IC50) in the assay with MOLM-13 (Homo sapiens, MOLM-13, 96 h) came to 0.03 nM; in the assay with MDA-MB-231 (Homo sapiens, MDA-MB-231, 96 h) it was 0.06 nM.
Consider `Cc1c(C#Cc2cnn(CCCNc3ccc4c(c3)CN(C3CCC(=O)NC3=O)C4=O)c2)sc2c1C(c1ccc(Cl)cc1)=N[C@@H](C)c1nnc(C)n1-2` (stereo partly drawn) [compound 185, 3-(5-((3-(4-(((S)-4-(4-chlorophenyl)-3,6,9-trimethyl-6H-thieno[3,2-f][1,2,4]triazolo[4,3-a][1,4]diazepin-2-yl)ethynyl)-1H-pyrazol-1-yl)propyl)amino)-1-oxoisoindolin-2-yl)piperidine-2,6-dione], for which the half-maximal inhibitory concentration (IC50) in the assay with MOLM-13 (Homo sapiens, MOLM-13, 96 h) is 0.2 nM; in the assay with MDA-MB-231 (Homo sapiens, MDA-MB-231, 96 h), 0.1 nM.
On to `Cc1c(C#Cc2ccc(CCC#Cc3cccc4c3CN(C3CCC(=O)NC3=O)C4=O)cn2)sc2c1C(c1ccc(Cl)cc1)=NCc1nnc(C)n1-2` (stereo not shown) [compound 181, 3-(4-(4-(6-((4-(4-chlorophenyl)-3,9-dimethyl-6H-thieno[3,2-f][1,2,4]triazolo[4,3-a][1,4]diazepin-2-yl)ethynyl)pyridin-3-yl)but-1-yn-1-yl)-1-oxoisoindolin-2-yl)piperidine-2,6-dione], for which the half-maximal inhibitory concentration (IC50) in the assay with MOLM-13 (Homo sapiens, MOLM-13, 96 h) was greater than 1000 nM; with MDA-MB-231 (Homo sapiens, MDA-MB-231, 96 h), 532 nM.

For orientation: IC50 means the concentration that gives 50% inhibition. Low readings indicate higher potency, high ones lower potency.

The values above are taken from US10975093B2, “Fused 1,4-diazepines as BET protein degraders” (THE REGENTS OF THE UNIVERSITY OF MICHIGAN, priority 2016, dated 2021).
